Assays:
Assay type in all cases: in vivo, beef steers
[1] = Serum 25-Hydroxy-Vitamin D3 after intravenous infusion (Example I); conditions: 125 mg intravenous infusion
Protocol: Applicants infused three (3) beef steers of mixed breeding with 125 milligrams of 25-Hydroxy-Vitamin D3 intravenously. Blood was drawn just prior to the intravenous infusion and at 6 hours and 24 hours post administration.
Point 120, representing 116 nanomoles per liter, comprises the serum level of 25-Hydroxy-Vitamin D3 just prior to the intravenous infusion. At 6 hours post administration, the serum blood level was measured as 2432 nanomoles per liter, i.e. point 130. […] At 24 hours post administration, the serum blood level was measured as 1011 nanomoles per liter, i.e. point 140.

[2] = Serum 25-Hydroxy-Vitamin D3 after intranasal or transdermal administration (Example II); conditions: for fold increase in the 25-Hydroxy-Vitamin D3 serum level / percent increase in the 25-Hydroxy-Vitamin D3 serum level: nasal delivery
Protocol: These five treatments were:
Treatments were applied and cattle were bled via jugular venipuncture at 0, 6, and 24 hours post-dosing.

[3] = Dose/response of nasal administration, serum 25-Hydroxy-Vitamin D3 (Example III); conditions: intranasal
Protocol: To study the dose/response efficacy of nasal administration of Vitamin D, twelve (12) beef steers of mixed breeding were used to evaluate four treatments (3 replications). These four treatments were:
(§1) Treatments were applied and cattle were bled via jugular venipuncture at 0 and 6 hours post-dosing.

[4] = Buccal versus nasal administration, serum 25-Hydroxy-Vitamin D3 (Example IV); conditions: for serum level change for each milligram administered: after 6 hours (FIG. 7)
Protocol: To study the dose/response efficacy of buccal administration of one or more vitamins, beef steers of mixed breeding were used to evaluate three treatments (3 replications). These three treatments were:
as §1

[5] = Treatment 2: 125 mg 25-OH D3, ethanol, intranasal, 6 Hours
[6] = Treatment 2: 125 mg 25-OH D3, ethanol, intranasal, 24 Hours
[7] = Treatment 2: 125 mg 25-OH D3, ethanol, intranasal, time 0
[8] = Treatment 2: 125 mg in ethanol, 6 hours post administration (FIG. 2, point 212)
[9] = Treatment 2: 125 mg in ethanol, 24 hours post administration (FIG. 2, point 214)
[10] = Treatment 3: 125 mg 25-OH D3, powder, intranasal, 6 Hours
[11] = Treatment 3: 125 mg 25-OH D3, powder, intranasal, 24 Hours
[12] = Treatment 3: 125 mg 25-OH D3, powder, intranasal, time 0
[13] = Treatment 4: 125 mg 25-OH D3, corn oil, intranasal, 6 Hours
[14] = Treatment 4: 125 mg 25-OH D3, corn oil, intranasal, 24 Hours
[15] = Treatment 4: 125 mg 25-OH D3, corn oil, intranasal, time 0
[16] = Treatment 5: 125 mg 25-OH D3, transdermal (inner ear), 6 Hours
[17] = Treatment 5: 125 mg 25-OH D3, transdermal (inner ear), 24 Hours
[18] = Treatment 5: 125 mg 25-OH D3, transdermal (inner ear), time 0

C=C1CC[C@H](O)C/C1=C/C=C1\CCC[C@]2(C)[C@@H]([C@H](C)CCCC(C)(C)O)CC[C@@H]12 [25-Hydroxy-Vitamin D3]
course of serum level of 25-Hydroxy-Vitamin D3 ([1]; 0 to 6 hours (FIG. 1, curve portion 112)): increases from 0 hours to 6 hours post administration
course of serum level of 25-Hydroxy-Vitamin D3 ([1]; 6 to 24 hours (FIG. 1, curve portion 114)): decreases from 6 hours to 24 hours post administration
serum level of 25-Hydroxy-Vitamin D3 ([1]; 6 hours post administration): 2432 nanomoles per liter
serum level of 25-Hydroxy-Vitamin D3 ([1]; 24 hours post administration): 1011 nanomoles per liter
serum level of 25-Hydroxy-Vitamin D3 ([1]; just prior to infusion): 116 nanomoles per liter
Average Serum Levels-25-Hydroxy-Vitamin D3 [2, 5]: 226 nmol/L
Multiple change from time 0 of serum 25-Hydroxy-Vitamin D3 [2, 5]: 3.0
Average Serum Levels-25-Hydroxy-Vitamin D3 [2, 6]: 354 nmol/L
Multiple change from time 0 of serum 25-Hydroxy-Vitamin D3 [2, 6]: 4.7
Average Serum Levels-25-Hydroxy-Vitamin D3 [2, 7]: 75 nmol/L
Multiple change from time 0 of serum 25-Hydroxy-Vitamin D3 [2, 7]: 0
course of serum level of 25-Hydroxy-Vitamin D3 ([2]; Treatment 2: 125 mg in ethanol, nasal delivery (FIG. 2, curve 210)): increases throughout the time period from 0 hours to 24 hours post administration
fold increase in the 25-Hydroxy-Vitamin D3 serum level [2, 8]: more than a three fold increases
percent increase in the 25-Hydroxy-Vitamin D3 serum level [2, 8]: ~200%
fold increase in the 25-Hydroxy-Vitamin D3 serum level [2, 9]: greater than 4.7 fold
percent increase in the 25-Hydroxy-Vitamin D3 serum level [2, 9]: ~375%
Average Serum Levels-25-Hydroxy-Vitamin D3 [2, 10]: 104 nmol/L
Multiple change from time 0 of serum 25-Hydroxy-Vitamin D3 [2, 10]: 1.2
Average Serum Levels-25-Hydroxy-Vitamin D3 [2, 11]: 156 nmol/L
Multiple change from time 0 of serum 25-Hydroxy-Vitamin D3 [2, 11]: 1.9
Average Serum Levels-25-Hydroxy-Vitamin D3 [2, 12]: 83 nmol/L
Multiple change from time 0 of serum 25-Hydroxy-Vitamin D3 [2, 12]: 0
course of serum level of 25-Hydroxy-Vitamin D3 ([2]; Treatment 3: 125 mg powder, nasal delivery (FIG. 2, curve 220)): increases throughout the time period from 0 hours to 24 hours post administration
Average Serum Levels-25-Hydroxy-Vitamin D3 [2, 13]: 95 nmol/L
Multiple change from time 0 of serum 25-Hydroxy-Vitamin D3 [2, 13]: 1.0
Average Serum Levels-25-Hydroxy-Vitamin D3 [2, 14]: 179 nmol/L
Multiple change from time 0 of serum 25-Hydroxy-Vitamin D3 [2, 14]: 1.9
Average Serum Levels-25-Hydroxy-Vitamin D3 [2, 15]: 94 nmol/L
Multiple change from time 0 of serum 25-Hydroxy-Vitamin D3 [2, 15]: 0
course of serum level of 25-Hydroxy-Vitamin D3 ([2]; Treatment 4: 125 mg in corn oil, nasal delivery (FIG. 2, curve 230)): increases throughout the time period from 6 hours to 24 hours post administration
Average Serum Levels-25-Hydroxy-Vitamin D3 [2, 16]: 81 nmol/L
Multiple change from time 0 of serum 25-Hydroxy-Vitamin D3 [2, 16]: 1.1
Average Serum Levels-25-Hydroxy-Vitamin D3 [2, 17]: 96 nmol/L
Multiple change from time 0 of serum 25-Hydroxy-Vitamin D3 [2, 17]: 1.3
Average Serum Levels-25-Hydroxy-Vitamin D3 [2, 18]: 74 nmol/L
Multiple change from time 0 of serum 25-Hydroxy-Vitamin D3 [2, 18]: 0
Average Serum Levels-25-Hydroxy-Vitamin D3 ([3]; Treatment 2: 30 mg 25-OH D3 in 1 ml ethanol, 6 Hours): 149.67 nmoI/L
Average Serum Levels-25-Hydroxy-Vitamin D3 ([3]; Treatment 2: 30 mg 25-OH D3 in 1 ml ethanol, time 0): 121.33 nmoI/L
change in serum level per milligram administered, compared among dosages ([3]; Treatment 2: 30 mg in 1 ml ethanol, 6 hours, versus 60, 90, 120 mg (FIG. 5)): maximum change in serum level per milligram administered
Average Serum Levels-25-Hydroxy-Vitamin D3 ([3]; Treatment 3: 60 mg 25-OH D3 in 1 ml ethanol, 6 Hours): 184.33 nmoI/L
Average Serum Levels-25-Hydroxy-Vitamin D3 ([3]; Treatment 3: 60 mg 25-OH D3 in 1 ml ethanol, time 0): 144.67 nmoI/L
Average Serum Levels-25-Hydroxy-Vitamin D3 ([3]; Treatment 4: 90 mg 25-OH D3 in 1 ml ethanol, 6 Hours): 180.67 nmoI/L
Average Serum Levels-25-Hydroxy-Vitamin D3 ([3]; Treatment 4: 90 mg 25-OH D3 in 1 ml ethanol, time 0): 131.33 nmoI/L
Average Serum Levels-25-Hydroxy-Vitamin D3 ([3]; Treatment 5: 120 mg 25-OH D3 in 1 ml ethanol, 6 Hours): 191.67 nmoI/L
Average Serum Levels-25-Hydroxy-Vitamin D3 ([3]; Treatment 5: 120 mg 25-OH D3 in 1 ml ethanol, time 0): 122.33 nmoI/L
serum level change for each milligram administered ([4]; Buccal administration (Treatment 3, 120 mg in 1 ml ethanol)): about 0.63 nmol/L for each milligram administered
serum level change for each milligram administered ([4]; Nasal administration (Treatment 2, 120 mg in 1 ml ethanol)): about 0.57 nmol/L for each milligram administered
Average Serum Levels-25-Hydroxy-Vitamin D3 ([4]; Treatment 2: 120 mg 25-OH D3 in 1 ml ethanol, intranasal, 6 Hours): 191.67 nmol/L
Average Serum Levels-25-Hydroxy-Vitamin D3 ([4]; Treatment 2: 120 mg 25-OH D3 in 1 ml ethanol, intranasal, time 0): 122.33 nmol/L
effectiveness of buccal administration compared with nasal administration ([4]; Treatment 3, buccal, in ethanol, versus Treatment 2, nasal, 0 to 6 hours (FIG. 6, curves 610 and 620)): comparatively as effective as nasal administration
Average Serum Levels-25-Hydroxy-Vitamin D3 ([4]; Treatment 3: 120 mg 25-OH D3 in 1 ml ethanol, buccal, 6 Hours): 158.00 nmol/L
Average Serum Levels-25-Hydroxy-Vitamin D3 ([4]; Treatment 3: 120 mg 25-OH D3 in 1 ml ethanol, buccal, time 0): 82.00 nmol/L
